Reference: PubChem BioAssay (NCI)
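Method: 48-hour compound exposure of cells in 96-well plates, five concentrations, linear interpolation of endpoints. At the TGI there is no net growth.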

What was measured:
Assay in all cases: growth of human tumour cells (NCI), 48 h
A498 renal = system: A498 renal
HCT-15 colon = system: HCT-15 colon
HL-60(TB) leukemia = system: HL-60(TB) leukemia
HOP-62 NSCLC = system: HOP-62 NSCLC
M14 melanoma = system: M14 melanoma
MALME-3M melanoma = system: MALME-3M melanoma
MCF7 breast = system: MCF7 breast
MDA-MB-435 = system: MDA-MB-435
MDA-N = system: MDA-N
MOLT-4 leukemia = system: MOLT-4 leukemia
NCI-H460 lung = system: NCI-H460 lung
RPMI-8226 leukemia = system: RPMI-8226 leukemia
RXF 393 renal = system: RXF 393 renal
SF-295 CNS = system: SF-295 CNS
SK-MEL-2 melanoma = system: SK-MEL-2 melanoma
SR leukemia = system: SR leukemia
SW-620 colon = system: SW-620 colon
UACC-62 melanoma = system: UACC-62 melanoma
T-47D breast = system: T-47D breast
UO-31 renal = system: UO-31 renal

SMILES | TGI (A498 renal) | TGI (HCT-15 colon) | TGI (HL-60(TB) leukemia) | TGI (HOP-62 NSCLC) | TGI (M14 melanoma) | TGI (MALME-3M melanoma) | TGI (MCF7 breast) | TGI (MDA-MB-435) | TGI (MDA-N) | TGI (MOLT-4 leukemia) | TGI (NCI-H460 lung) | TGI (RPMI-8226 leukemia) | TGI (RXF 393 renal) | TGI (SF-295 CNS) | TGI (SK-MEL-2 melanoma) | TGI (SR leukemia) | TGI (SW-620 colon) | TGI (UACC-62 melanoma) | TGI (T-47D breast) | TGI (UO-31 renal)
CC[C@@H](CCCCC1CC[C@H]2CC(=O)C[C@@H]12)OC (stereo not given in full) | > 100 µM | > 100 µM | > 100 µM | > 100 µM | > 100 µM | > 100 µM | > 100 µM | > 100 µM | > 100 µM | > 100 µM | > 100 µM | > 100 µM | > 100 µM | > 100 µM | > 100 µM | > 100 µM | > 100 µM | > 100 µM |  | 
O=c1oc(-c2ccc(O)cc2)cc2cc(O)ccc12 | 51.7 µM | > 100 µM | 48.6 µM | > 100 µM | 55.5 µM | 72.3 µM | 52.9 µM | 78.9 µM |  | 69.2 µM | 58.2 µM | > 100 µM | 54.4 µM | > 100 µM | > 100 µM |  | 87.8 µM |  | 49 µM | 81.3 µM
CC(=O)C(C)C(=O)N1C(=O)N(C)C2(C)N(C)C(=O)NC12C (stereo not given) |  | > 100 µM | > 100 µM | > 100 µM | > 100 µM | > 100 µM | > 100 µM | > 100 µM | > 100 µM |  | > 100 µM | > 100 µM |  | > 100 µM | > 100 µM | > 100 µM |  | > 100 µM |  | > 100 µM
O=C(O)c1nc2ccc(C(F)(F)F)cc2nc1Nc1ccc(Cl)c(Cl)c1 | 27.4 µM | 22.6 µM | 21.9 µM | 20.6 µM |  | 31 µM | 66.7 µM | 19.1 µM | 25.3 µM | 17.3 µM | 20.8 µM |  | 28.9 µM | 17 µM | 11.2 µM | 14 µM | 24.1 µM | 18 µM |  | 18.2 µM
COc1ccc2cc(CNCCCCCCCCNCc3ccc4cc(OC)ccc4c3)ccc2c1 | 9.68 µM | > 100 µM | 15.2 µM | 10.2 µM |  |  | > 100 µM | 9.83 µM |  | 7.5 µM | 33.9 µM | 12.2 µM | > 100 µM | 41.2 µM | 24.7 µM | 2.76 µM | 4.38 µM | 3.79 µM | 91 µM | 
CC12CC(=O)Nc3ccccc3N1C(c1ccccc1)=NO2 (stereo not given) | > 100 µM | > 100 µM | > 100 µM | > 100 µM | > 100 µM | > 100 µM | > 100 µM | > 100 µM | > 100 µM | > 100 µM | > 100 µM | > 100 µM | > 100 µM | > 100 µM | > 100 µM | > 100 µM | > 100 µM | > 100 µM |  | > 100 µM
Nc1nc2ccc(Sc3ccc4nc(N)[nH]c(=O)c4c3)cc2c(=O)[nH]1 |  | > 100 µM | > 100 µM |  | > 100 µM | > 100 µM | > 100 µM | > 100 µM |  | > 100 µM | > 100 µM | > 100 µM | > 100 µM | > 100 µM | > 100 µM | > 100 µM | > 100 µM | > 100 µM | > 100 µM | > 100 µM
CC(O)c1cc2c(s1)C(=O)c1c(C(C)O)csc1C2=O (stereo not given) | 0.462 µM | 0.422 µM | 0.0415 µM | 0.439 µM |  | 0.115 µM | > 100 µM | 0.183 µM | 0.0483 µM |  | 0.148 µM | 0.801 µM | 0.656 µM | 0.255 µM | 0.292 µM |  | 0.833 µM | 0.183 µM | 0.667 µM | 0.776 µM
Cc1ccc(/C=C2\NC(=S)NC2=O)cc1 |  | > 100 µM |  | > 100 µM | > 100 µM | > 100 µM | > 100 µM | > 100 µM | > 100 µM | > 100 µM |  | > 100 µM | > 100 µM | > 100 µM | > 100 µM |  | > 100 µM | > 100 µM | > 100 µM | > 100 µM
N#CCCN(CCC#N)c1ccc(/C=C2\N=C(c3ccccc3)N(c3ccc(C(=O)O)cc3)C2=O)cc1 | > 100 µM | > 100 µM |  | > 100 µM | > 100 µM |  | > 100 µM | > 100 µM | > 100 µM |  | > 100 µM | > 100 µM | > 100 µM | > 100 µM | > 100 µM |  | 48.3 µM | 67.5 µM | > 100 µM | > 100 µM
O=C(c1cccs1)c1nccc2c1cnc1ccccc12 | > 100 µM | > 100 µM | > 100 µM | > 100 µM | > 100 µM | > 100 µM | 72.5 µM | > 100 µM |  | > 100 µM | > 100 µM | > 100 µM | 21.2 µM | > 100 µM | > 100 µM | > 100 µM | > 100 µM | > 100 µM | > 100 µM | > 100 µM
CCOC(=O)c1sc2c(c1OC(=O)c1cc(OC)c(OC)c(OC)c1)c(=O)n(-c1ccccc1)c(=S)n2-c1ccccc1 | > 100 µM | > 100 µM | > 100 µM | > 100 µM | > 100 µM | > 100 µM | > 100 µM | > 100 µM | > 100 µM | > 100 µM | > 100 µM | > 100 µM | > 100 µM | > 100 µM |  |  | > 100 µM | > 100 µM | > 100 µM | 
COc1ccc2oc(S(=O)(=O)N3CC(CCl)c4ccc(N)cc43)cc2c1 (stereo not given) | > 52.1 µM | > 23.9 µM | 0.454 µM | > 100 µM | > 100 µM | > 100 µM | > 58.6 µM |  | > 100 µM | > 54.5 µM | 10.6 µM | > 100 µM |  | > 100 µM | > 100 µM |  | > 100 µM | > 100 µM | > 100 µM | > 100 µM
O=C1CCCC/C1=C\c1ccc([N+](=O)[O-])cc1 |  |  | > 100 µM | 29 µM | 40.8 µM |  | 37.4 µM |  | 41.5 µM | 30.4 µM | > 100 µM | 44.3 µM |  | 51 µM | 46 µM | > 100 µM |  | 30.7 µM | 65.3 µM | 36.3 µM
